Like-named read-outs stand apart in the source and are kept apart here.
Legend:
[1] = Microsomal metabolic stability assay; format: in vitro ADME; settings: pH 7.4, 0.5 mg/mL protein, 1 μM compound
Procedure: Microsomal Metabolic Stability Assay
Microsomes were pre-incubated with test compound or control compounds for 5 min at 37° C. in 100 mM potassium phosphate buffer, pH 7.4, 1.0 mM EDTA. The reaction was initiated by addition of 15 μL of the NADPH regenerating system to 30 μL of each incubation mixture per time point. The final incubation condition was composed of 0.5 mg/mL microsomal protein, 1 μM test article/positive control, 2 mM NADPH. The 0-minute samples were prepared by addition of a 30 μL aliquot of each incubation mixture to 135 μL quench reagent to precipitate proteins. And then a 15 μL aliquot of the NADPH regenerating system was added. At 5, 15, 30 and 45 minutes, the reaction will be stopped by the addition of cold acetonitrile solution containing internal standard. The samples taken at all time points were centrifuged at 5000×g for 15 minutes. 50 μL of supernatant are taken into 96-well assay plates pre-added with 50 μL ultrapure water, and then analyzed by LC/MS/MS.
Concentrations of test articles, control compounds in the samples were determined by using LC/MS/MS method. Plotting of the chromatograms and peak area integrations are carried out by Analyst (AB Sciex).
n the determination of the in vitro elimination constant (ke) of the control compounds, the analyte/internal standard peak area ratios will be converted to percentage remaining (% Remaining) with the following equation: […]
The slope was measured by the natural logarithm of the percentage of the residual compound and time, T1/2 was calculated according to the following formula.

[2] = molecular target: T1, Ba/F3-FL-TYK2-P760L cells (Homo sapiens, UniProt P29597, P760L, cells depend on it); assay: Anti-proliferative assay, Ba/F3-FL-TYK2-P760L cells (Cell-Titer Glo); format: cell-based; settings: 72 h, read-out: BaF3-FL-T2P760L IC50
T1 construct: BaF3-FL-T2P760L (nM)
T1 sequence (P29597 whole entry P760L): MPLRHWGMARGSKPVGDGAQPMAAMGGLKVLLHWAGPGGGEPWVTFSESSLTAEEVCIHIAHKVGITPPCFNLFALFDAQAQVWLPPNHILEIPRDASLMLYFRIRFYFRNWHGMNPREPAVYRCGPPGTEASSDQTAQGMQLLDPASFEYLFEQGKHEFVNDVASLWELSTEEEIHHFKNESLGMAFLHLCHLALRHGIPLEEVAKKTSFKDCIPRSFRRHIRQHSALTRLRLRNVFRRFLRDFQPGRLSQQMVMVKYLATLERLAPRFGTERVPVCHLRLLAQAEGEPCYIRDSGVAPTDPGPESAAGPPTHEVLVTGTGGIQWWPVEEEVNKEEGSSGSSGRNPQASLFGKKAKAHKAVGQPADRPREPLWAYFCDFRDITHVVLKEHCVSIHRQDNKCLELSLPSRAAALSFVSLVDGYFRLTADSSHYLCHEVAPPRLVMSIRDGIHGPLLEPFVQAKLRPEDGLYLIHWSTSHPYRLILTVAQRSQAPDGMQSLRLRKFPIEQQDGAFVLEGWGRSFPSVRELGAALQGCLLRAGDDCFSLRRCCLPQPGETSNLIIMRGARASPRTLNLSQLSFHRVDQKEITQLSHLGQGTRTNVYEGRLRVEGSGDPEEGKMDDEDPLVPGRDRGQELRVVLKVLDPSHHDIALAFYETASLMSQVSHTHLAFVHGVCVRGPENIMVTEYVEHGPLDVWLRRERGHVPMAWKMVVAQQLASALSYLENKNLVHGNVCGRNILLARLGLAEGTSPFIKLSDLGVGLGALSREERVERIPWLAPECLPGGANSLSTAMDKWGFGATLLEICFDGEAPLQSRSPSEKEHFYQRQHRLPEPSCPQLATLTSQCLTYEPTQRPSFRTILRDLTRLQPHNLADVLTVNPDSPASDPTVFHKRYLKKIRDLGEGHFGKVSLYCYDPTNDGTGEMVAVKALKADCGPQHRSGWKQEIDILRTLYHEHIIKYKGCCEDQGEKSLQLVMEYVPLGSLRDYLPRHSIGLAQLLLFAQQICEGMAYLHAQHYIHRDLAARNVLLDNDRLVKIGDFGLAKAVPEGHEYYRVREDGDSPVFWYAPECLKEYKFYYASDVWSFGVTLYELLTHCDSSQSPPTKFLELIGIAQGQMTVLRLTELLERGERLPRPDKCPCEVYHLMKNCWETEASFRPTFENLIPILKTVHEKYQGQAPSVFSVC
Outline: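 Ba/F3 cells made IL-3-independent by TEL-fused or full-length mutant JAK-family kinases, seeded at 2000/well and dosed after 24 h with 9 three-fold dilutions topping at 20 μM. Viability after 72 h at 37 °C, 5% CO2 by Cell-Titer Glo ATP luminescence.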

[3] = dog liver microsomes, read-out: Dog LM Clint
[4] = dog liver microsomes, read-out: Dog LM T½
[5] = human liver microsomes, read-out: Human LM Clint
[6] = human liver microsomes, read-out: Human LM T½
[7] = rat liver microsomes, read-out: Rat LM Clint
[8] = rat liver microsomes, read-out: Rat LM T½

| microsomal CLint at 1 μM [1, 3] [µL/min/mg] | half-life at 1 μM [1, 4] [h] | microsomal CLint at 1 μM [1, 5] [µL/min/mg] | half-life at 1 μM [1, 6] [h] | microsomal CLint at 1 μM [1, 7] [µL/min/mg] | half-life at 1 μM [1, 8] [h] | GI50 [2] [nM] | Structure (SMILES) |
| --- | --- | --- | --- | --- | --- | --- | --- |
| 23.1 | 0.998 | 6.48 | 3.56 | 6.84 | 3.38 | 42.1 | [2H]C([2H])([2H])NC(=O)c1cnc2cc1Nc1cc(cc(-c3ncn(C)n3)c1OC)COCc1nc(ccc1F)N2 [Example 66, 18-Fluoro-10-methoxy-N-(methyl-d3)-11-(1-methyl-1H-1,2,4-triazol-3-yl)-15-oxa-2,4,8,21-tetraazatetracyclo[15.3.1.1^{3,7}.1^{9,13}]tricosa-1(20),3,5,7(23),9(22),10,12,17(21),18-nonaene-6-carboxamide] |
| 1.92 | 12 |  | > 2 | 3.32 | 6.97 | 79.9 | [2H]C([2H])([2H])NC(=O)c1cnc2cc1Nc1cc(cc(-c3ncn(C)n3)c1OC)COCc1cc(C(F)(F)F)cc(n1)N2 [Example 69, 10-Methoxy-N-(methyl-d3)-11-(1-methyl-1H-1,2,4-triazol-3-yl)-19-(trifluoromethyl)-15-oxa-2,4,8,21-tetraazatetracyclo[15.3.1.1^{3,7}.1^{9,13}]tricosa-1(21),3,5,7(23),9(22),10,12,17,19-nonaene-6-carboxamide] |
| 30.4 | 0.759 | 12.7 | 1.83 | 7.43 | 3.11 | 30 | [2H]C([2H])([2H])NC(=O)c1cnc2cc1Nc1cc(cc(-c3ncn(C)n3)c1OC)COCc1nc(ccc1C)N2 [Example 70, 10-Methoxy-N-(methyl-d3)-18-methyl-11-(1-methyl-1H-1,2,4-triazol-3-yl)-15-oxa-2,4,8,21-tetraazatetracyclo[15.3.1.1^{3,7}.1^{9,13}]tricosa-1(20),3,5,7(23),9(22),10,12,17(21),18-nonaene-6-carboxamide] |
| 15.4 | 1.5 | 4.59 | 5.03 | 12.2 | 1.9 | 61.1 | [2H]C([2H])([2H])NC(=O)c1cnc2cc1Nc1cc(cc(-c3ncn(C)n3)c1OC)COCc1cc(F)cc(n1)N2 [Example 77, 19-Fluoro-10-methoxy-N-(methyl-d3)-11-(1-methyl-1H-1,2,4-triazol-3-yl)-15-oxa-2,4,8,21-tetraazatetracyclo[15.3.1.1^{3,7}.1^{9,13}]tricosa-1(21),3,5,7(23),9(22),10,12,17,19-nonaene-6-carboxamide] |

Further lines, the compound ahead of its results:

| Structure (SMILES) | microsomal CLint at 1 μM [1, 3] [µL/min/mg] | half-life at 1 μM [1, 4] [h] | microsomal CLint at 1 μM [1, 5] [µL/min/mg] | half-life at 1 μM [1, 6] [h] | microsomal CLint at 1 μM [1, 7] [µL/min/mg] | half-life at 1 μM [1, 8] [h] | GI50 [2] [nM] |
| --- | --- | --- | --- | --- | --- | --- | --- |
| [2H]C([2H])([2H])NC(=O)c1nnc2cc1Nc1cc(cc(-c3ncn(C)n3)c1OC)CN(C)Cc1nc(ccc1F)N2 [Example 72, 18-Fluoro-10-methoxy-N-(methyl-d3)-15-methyl-11-(1-methyl-1H-1,2,4-triazol-3-yl)-2,4,5,8,15,21-hexaazatetracyclo[15.3.1.1^{3,7}.1^{9,13}]tricosa-1(20),3,5,7(23),9(22),10,12,17(21),18-nonaene-6-carboxamide] | 16.2 | 1.43 | 16.9 | 1.37 | 87 | 0.266 | 249 |
| [2H]C([2H])([2H])NC(=O)c1nnc2cc1Nc1cc(cc(-c3ccn(C)n3)c1OC)COCc1nc(ccc1F)N2 [Example 74, 18-Fluoro-10-methoxy-N-(methyl-d3)-11-(1-methyl-1H-pyrazol-3-yl)-15-oxa-2,4,5,8,21-pentaazatetracyclo[15.3.1.1^{3,7}.1^{9,13}]tricosa-1(20),3,5,7(23),9(22),10,12,17(21),18-nonaene-6-carboxamide] | 108 | 0.215 | 17.5 | 1.32 | 161 | 0.143 | 93.5 |
| [2H]C([2H])([2H])NC(=O)c1nnc2cc1Nc1cc(cc(-n3cnc(C)n3)c1OC)COCc1nc(ccc1F)N2 [Example 75, 18-Fluoro-10-methoxy-N-(methyl-d3)-11-(3-methyl-1H-1,2,4-triazol-1-yl)-15-oxa-2,4,5,8,21-pentaazatetracyclo[15.3.1.1^{3,7}.1^{9,13}]tricosa-1(20),3,5,7(23),9(22),10,12,17(21),18-nonaene-6-carboxamide] | 37.7 | 0.613 | 21.8 | 1.06 | 22.6 | 1.02 | 108 |
| [2H]C([2H])([2H])NC(=O)c1cnc2nc1Nc1cc(cc(-c3ncn(C)n3)c1OC)COCc1cc(ccc1F)N2 [Example 76, 18-Fluoro-10-methoxy-N-(methyl-d3)-11-(1-methyl-1H-1,2,4-triazol-3-yl)-15-oxa-2,4,8,23-tetraazatetracyclo[15.3.1.1^{3,7}.1^{9,13}]tricosa-1(20),3,5,7(23),9(22),10,12,17(21),18-nonaene-6-carboxamide] | 12.3 | 1.88 | 20.5 | 1.12 | 19.6 | 1.18 | 58.7 |
| [2H]C([2H])([2H])NC(=O)c1cnc2nc1Nc1cc(cc(-c3ncn(C)n3)c1OC)COCc1cc(cc(F)c1F)N2 [Example 78, 18,19-Difluoro-10-methoxy-N-(methyl-d3)-11-(1-methyl-1H-1,2,4-triazol-3-yl)-15-oxa-2,4,8,23-tetraazatetracyclo[15.3.1.1^{3,7}.1^{9,13}]tricosa-1(20),3,5,7(23),9(22),10,12,17(21),18-nonaene-6-carboxamide] | 8.5 | 2.72 | 22 | 1.05 | 21.4 | 1.08 | 46.5 |
| [2H]C([2H])([2H])NC(=O)c1cnc2nc1Nc1cc(cc(-c3ncn(C)n3)c1OC)COCc1cc(F)cc(c1)N2 [Example 79, 19-Fluoro-10-methoxy-N-(methyl-d3)-11-(1-methyl-1H-1,2,4-triazol-3-yl)-15-oxa-2,4,8,23-tetraazatetracyclo[15.3.1.1^{3,7}.1^{9,13}]tricosa-1(21),3,5,7(23),9(22),10,12,17,19-nonaene-6-carboxamide] | 8.97 | 2.58 | 27.8 | 0.833 | 26.2 | 0.881 | 40.3 |
| [2H]C([2H])([2H])NC(=O)c1nnc2cc1Nc1cc(cc(-c3ncn(C4CC4)n3)c1OC)COCc1nc(ccc1F)N2 [Example 82, 11-(1-Cyclopropyl-1H-1,2,4-triazol-3-yl)-18-fluoro-10-methoxy-N-(methyl-d3)-15-oxa-2,4,5,8,21-pentaazatetracyclo[15.3.1.1^{3,7}.1^{9,13}]tricosa-1(20),3,5,7(23),9(22),10,12,17(21),18-nonaene-6-carboxamide] | 17.8 | 1.3 | < 11.5 | > 2 | 20.1 | 1.15 | 64.3 |
| [2H]C([2H])([2H])NC(=O)c1cnc2cc1Nc1cc(cc(-c3ncc(F)cn3)c1OC)COCc1nc(ccc1F)N2 [Example 86, 18-Fluoro-11-(5-fluoropyrimidin-2-yl)-10-methoxy-N-(methyl-d3)-15-oxa-2,4,8,21-tetraazatetracyclo[15.3.1.1^{3,7}.1^{9,13}]tricosa-1(20),3,5,7(23),9(22),10,12,17(21),18-nonaene-6-carboxamide] | 20 | 1.16 | < 11.5 | > 2 | < 11.5 | > 2 | 139 |
| [2H]C([2H])([2H])NC(=O)c1cnc2cc1Nc1cc(cc(-c3ncc(OC)cn3)c1OC)COCc1nc(ccc1F)N2 [Example 95, 18-Fluoro-10-methoxy-11-(5-methoxypyrimidin-2-yl)-N-(methyl-d3)-15-oxa-2,4,8,21-tetraazatetracyclo[15.3.1.1^{3,7}.1^{9,13}]tricosa-1(20),3,5,7(23),9(22),10,12,17(21),18-nonaene-6-carboxamide] | < 11.5 | > 2 | < 11.5 | > 2 | < 11.5 | > 2 | 53.1 |
